# Experimental data from patent US20250170101A1, “MONOACYLGLYCEROL LIPASE INHIBITORS AND USE THEREOF FOR THE TREATMENT AND MANAGEMENT OF PAIN AND RELATED CONDITIONS” (Psy Therapeutics, Inc., priority 2021, published 2025).
# Experiments:
# [1] = Pharmacokinetic study of compounds in mice, Example 25; format: in vivo, male C57BL/6 mice; details: Brain, Oral, 5 mg/kg
# Experimental: Healthy male C57BL/6 mice (8-12 weeks old) weighing between 17 to 35 g were procured from Global, India. Temperature and humidity were maintained at 22±3° C. and 30-70%, respectively and illumination was controlled to give a sequence of 12 hr light and 12 hr dark cycle. Temperature and humidity were recorded by auto-controlled data logger system. All the animals were provided laboratory rodent diet. Reverse osmosis water treated with ultraviolet light was provided ad libitum.
# Protocol A: Twenty-four male mice were divided into two groups as; Group 1: 30 mg/kg/IP; Plasma and brain; Number of animals=12; Animal #1-12. Group 2: 30 mg/kg/PO; Plasma and brain; Number of animals=12; Animal #13-24. […] All samples were processed for analysis by protein precipitation using acetonitrile and analyzed with fit-for-purpose LC/MS/MS method (LLOQ—2.02 ng/mL for plasma and 6.06 ng/g for brain). Pharmacokinetic parameters were calculated using the non-compartmental analysis tool of Phoenix WinNonlin®.
# Protocol B: Thirty six mice were included into the study and divided in to three groups as Group 1 (n=12), Group 2 (n=12) and Group 3 (n=12) with n=2 mice per time-point design. […] Plasma and brain samples were quantified by fit-for-purpose LC-MS/MS method (LLOQ: 1.01 ng/mL for plasma and 2.02 ng/mL for brain). […]
# [2] = target: T1, MAGL enzyme (Homo sapiens, UniProt Q99685); assay: MAGL reversible inhibition assay (washout), Example 22; format: biochemical; set-up: % MAGL activity returning after washout: concentration or dose not given beside the values
# T1 sequence (Q99685 1-303): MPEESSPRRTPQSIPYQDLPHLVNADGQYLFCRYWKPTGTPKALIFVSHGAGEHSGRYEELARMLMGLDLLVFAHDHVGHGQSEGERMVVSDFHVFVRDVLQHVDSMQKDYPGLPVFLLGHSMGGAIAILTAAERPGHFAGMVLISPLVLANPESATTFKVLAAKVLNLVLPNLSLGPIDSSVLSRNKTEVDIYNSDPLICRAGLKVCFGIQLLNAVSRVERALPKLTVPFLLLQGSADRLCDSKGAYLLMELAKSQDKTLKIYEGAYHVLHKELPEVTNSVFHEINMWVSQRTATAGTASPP
# Experimental: The reversible mechanism of MAGL inhibition of a test compound of Formula (I) can be determined. Flag-tagged MAGL enzyme will be immobilized on anti-Flag beads. Immobilized enzyme will be incubated+/−inhibitor at a dose that produces complete inhibition. Colorimetric substrate (4-NPA) will be added and the reaction monitored on a plate reader for 30 minutes to verify complete inhibition. Immobilized enzyme will then be washed thoroughly to remove the inhibitor, and fresh substrate will be added. The reaction will be monitored for an additional 30 minutes; returning enzymatic activity will indicate reversibility of inhibition. […]
# For some test compounds, % activity returning after washout may be less than 100%/if complete compound unbinding takes longer than 30 minutes.
# [3] = target: T2, human MAGL (Homo sapiens, UniProt Q99685); assay: MAGL inhibition potency (IC50) with 4NPA substrate, Example 20, methods of Table C; format: biochemical; details: Method 12: Enzyme Conc 15, Reaction Biology (15 nM); read-out: MAGL Potency (Detection Method)
# T2 construct: recombinant MAGL enzyme (aa 2-303 RBC, internal preparation)
# T2 sequence (Q99685 2-303): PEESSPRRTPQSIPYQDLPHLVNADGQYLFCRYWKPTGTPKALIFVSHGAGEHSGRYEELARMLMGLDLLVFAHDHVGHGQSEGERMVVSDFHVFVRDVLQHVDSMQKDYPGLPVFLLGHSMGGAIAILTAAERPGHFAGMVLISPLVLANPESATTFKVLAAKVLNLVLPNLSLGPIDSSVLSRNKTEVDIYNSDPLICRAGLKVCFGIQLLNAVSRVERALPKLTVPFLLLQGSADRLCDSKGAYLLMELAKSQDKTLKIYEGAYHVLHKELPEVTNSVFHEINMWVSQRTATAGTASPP
degree to which MAGL enzymatic activity returned following washout of test compounds ([2]; pre-washout compound concentration 1 μM),"% MAGL activity returning after washout ([2]; relative to control (no inhibitor before washout), immediately following 30 minute washout)",IC50 [3],Compound,AUClast [1]
,,,"Cc1cnn(C2CC3(C2)CN(C(=O)c2cc(O)ccc2F)C3)c1-c1cc(F)ccc1F (single isomer, unassigned) [Compound 476, {6-[5-(2,5-difluorophenyl)-4-methyl-1-pyrazolyl]-2-aza-2-spiro[3.3]heptyl}(2-fluoro-5-hydroxyphenyl)methanone]",223.64 ng·h/mL
100,>50%,< 50 nM,"Cc1cn(C2CC3(C2)CN(C(=O)c2cc(O)ccc2F)C3)nc1-c1cc(F)ccc1Cl (single isomer, unassigned) [Compound 520, {6-[3-(2-chloro-5-fluorophenyl)-4-methyl-1-pyrazolyl]-2-aza-2-spiro[3.3]heptyl}(2-fluoro-5-hydroxyphenyl)methanone]",
